# Assay results as given in PubChem BioAssay AID212 (DTP/NCI, 2004).
# “And” between values parts separate entries of the source, which are not always exact repeats. Equal values may be shown once. Records with an inconclusive call do not appear.
# Tested on: BDF1 mice, colon carcinoma 38 sc, T/C %
# Assay: NCI In Vivo Anticancer Drug Screen. Data for tumor model Colon Carcinoma 38 (subcutaneous) in B6D2F1 (BDF1) mice
# Details: endpoint: median tumor weight (est.), higher = larger tumour
# Method in brief: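 Ratio of survival or tumor size, compound-treated animals relative to vehicle controls, in tumor-bearing mice.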
# [1] = dose: 10.0 mg/kg/injection, schedule: Q07DX002 (ip), vehicle: saline
# [2] = dose: 20.0 mg/kg/injection, schedule: Q07DX002 (ip), vehicle: saline
# [3] = dose: 25.0 mg/kg/injection, schedule: Q07DX002 (ip), vehicle: saline
# [4] = dose: 50.0 mg/kg/injection, schedule: Q07DX002 (ip), vehicle: saline
# [5] = dose: 100.0 mg/kg/injection, schedule: Q07DX002 (ip), vehicle: saline
# [6] = dose: 6.25 mg/kg/injection, schedule: Q07DX002 (ip), vehicle: saline with Tween-80
# [7] = dose: 25.0 mg/kg/injection, schedule: Q07DX002 (ip), vehicle: saline with Tween-80
# [8] = dose: 200.0 mg/kg/injection, schedule: Q07DX002 (ip), vehicle: saline
# [9] = dose: 200.0 mg/kg/injection, schedule: Q07DX002 (ip), vehicle: Klucel (hydroxypropylcellulose) (HPC)
smiles,measurement,setting,value
O=c1[nH]cccc1O,T/C,"dose: 32.0 mg/kg/injection, schedule: Q07DX002 (ip), vehicle: saline with Tween-80",101 % of control
same,T/C,"dose: 62.0 mg/kg/injection, schedule: Q07DX002 (ip), vehicle: saline with Tween-80",177 % of control
same,T/C,"dose: 62.5 mg/kg/injection, schedule: Q07DX002 (ip), vehicle: saline with Tween-80",100 % of control
same,T/C,"dose: 64.0 mg/kg/injection, schedule: Q07DX002 (ip), vehicle: saline with Tween-80",76 % of control
same,T/C,"dose: 125.0 mg/kg/injection, schedule: Q07DX002 (ip), vehicle: saline with Tween-80",87 % of control
same,T/C,"dose: 128.0 mg/kg/injection, schedule: Q07DX002 (ip), vehicle: saline with Tween-80",94 % of control
same,T/C,"dose: 250.0 mg/kg/injection, schedule: Q07DX002 (ip), vehicle: saline with Tween-80",87 % of control
same,T/C,"dose: 256.0 mg/kg/injection, schedule: Q07DX002 (ip), vehicle: saline with Tween-80",58 % of control
same,T/C,"dose: 512.0 mg/kg/injection, schedule: Q07DX002 (ip), vehicle: saline with Tween-80",20 % of control
CC(=O)OCC12CCC(C)=CC1OC1C(=O)CC2(C)C12CO2 (stereo not drawn),T/C,"dose: 0.25 mg/kg/injection, schedule: Q07DX002 (ip), vehicle: saline",111 % of control
same,T/C,[1],155 % of control
same,T/C,[2],119 % of control
CC1=C(/C=C/C(C)=C/C=C/C(C)=C/C(=O)O)C(C)(C)CCC1,T/C,"dose: 3.12 mg/kg/injection, schedule: Q07DX003 (ip), vehicle: saline with Tween-80",87 % of control
same,T/C,"dose: 6.25 mg/kg/injection, schedule: Q07DX003 (ip), vehicle: saline with Tween-80",96 % of control
same,T/C,"dose: 8.0 mg/kg/injection, schedule: Q07DX003 (ip), vehicle: saline with Tween-80",103 % of control
same,T/C,"dose: 12.5 mg/kg/injection, schedule: Q07DX003 (ip), vehicle: saline with Tween-80",99 % of control
same,T/C,"dose: 25.0 mg/kg/injection, schedule: Q07DX003 (ip), vehicle: saline with Tween-80",100 % of control
same,T/C,"dose: 32.0 mg/kg/injection, schedule: Q07DX003 (ip), vehicle: saline with Tween-80",98 % of control
same,T/C,"dose: 64.0 mg/kg/injection, schedule: Q07DX003 (ip), vehicle: saline with Tween-80",102 % of control
CC(Cc1ccc(O)c(O)c1)C(C)Cc1ccc(O)c(O)c1 (stereo not drawn),T/C,[3],100 % of control
same,T/C,[4],83 % of control
same,T/C,[5],94 % of control
same,T/C,"dose: 800.0 mg/kg/injection, schedule: Q07DX002 (ip), vehicle: saline",90 % of control
C[n+]1c(-c2cccc3ccccc23)c2cc(N)ccc2c2ccccc21,T/C,"dose: 3.12 mg/kg/injection, schedule: Q07DX002 (ip), vehicle: saline",107 % of control
same,T/C,"dose: 3.12 mg/kg/injection, schedule: Q07DX002 (ip), vehicle: suspension in saline",160 % of control
same,T/C,"dose: 6.25 mg/kg/injection, schedule: Q07DX002 (ip), vehicle: saline",122 % of control
same,T/C,"dose: 6.25 mg/kg/injection, schedule: Q07DX002 (ip), vehicle: suspension in saline",110 % of control
same,T/C,"dose: 12.5 mg/kg/injection, schedule: Q07DX002 (ip), vehicle: saline",64 % of control and 85 % of control
same,T/C,"dose: 12.5 mg/kg/injection, schedule: Q07DX002 (ip), vehicle: suspension in saline",256 % of control
same,T/C,[3],67 % of control and 79 % of control
same,T/C,"dose: 25.0 mg/kg/injection, schedule: Q07DX002 (ip), vehicle: suspension in saline",193 % of control
CC(C)CC(NC(=O)CF)C(=O)O (stereo not drawn),T/C,"dose: 0.62 mg/kg/injection, schedule: Q07DX002 (ip), vehicle: saline",46 % of control
same,T/C,"dose: 0.63 mg/kg/injection, schedule: Q07DX002 (ip), vehicle: saline",75 % of control
same,T/C,"dose: 1.25 mg/kg/injection, schedule: Q07DX002 (ip), vehicle: saline",94 % of control and 96 % of control
same,T/C,"dose: 5.0 mg/kg/injection, schedule: Q07DX002 (ip), vehicle: saline",74 % of control and 76 % of control
same,T/C,[1],71 % of control and 92 % of control
CS(=O)(=O)OCCN(CCOS(C)(=O)=O)c1ccc(C=O)cc1,T/C,[6],113 % of control
same,T/C,"dose: 12.5 mg/kg/injection, schedule: Q07DX002 (ip), vehicle: saline with Tween-80",29 % of control
same,T/C,[7],57 % of control
same,T/C,"dose: 50.0 mg/kg/injection, schedule: Q07DX002 (ip), vehicle: saline with Tween-80",60 % of control
COc1cc(O)c2c(O)c3c(c4c2c1[C@]1(C4)C(C)=CCCC1(C)C)[C@H](O)[C@@]1(O)CC(=O)C(C(N)=O)=C(O)[C@@]1(O)C3=O,T/C,[6],92 % of control and 97 % of control
same,T/C,[7],87 % of control and 101 % of control
CC(C)NCC(O)COc1ccc(O)c(O)c1 (stereo not drawn),T/C,[5],121 % of control
same,T/C,[8],93 % of control
COc1cc(Cc2nccc3cc(OC)c(OC)cc23)c(C(C)=O)c(OC)c1,T/C,"dose: 10.0 mg/kg/injection, schedule: Q07DX002 (ip), vehicle: suspension in saline",104 % of control
same,T/C,[2],110 % of control
same,T/C,"dose: 20.0 mg/kg/injection, schedule: Q07DX002 (ip), vehicle: suspension in saline",103 % of control
same,T/C,"dose: 40.0 mg/kg/injection, schedule: Q07DX002 (ip), vehicle: saline",107 % of control
same,T/C,"dose: 40.0 mg/kg/injection, schedule: Q07DX002 (ip), vehicle: suspension in saline",59 % of control
same,T/C,"dose: 80.0 mg/kg/injection, schedule: Q07DX002 (ip), vehicle: saline",82 % of control
same,T/C,"dose: 80.0 mg/kg/injection, schedule: Q07DX002 (ip), vehicle: suspension in saline",81 % of control
same,T/C,"dose: 160.0 mg/kg/injection, schedule: Q07DX002 (ip), vehicle: saline",96 % of control
same,T/C,"dose: 320.0 mg/kg/injection, schedule: Q07DX002 (ip), vehicle: saline",74 % of control
O=C[C@@H](CO)O[C@H](C=O)n1cnc2c(=O)[nH]cnc21,T/C,"dose: 18.7 mg/kg/injection, schedule: Q07DX002 (ip), vehicle: saline",168 % of control
same,T/C,"dose: 37.5 mg/kg/injection, schedule: Q07DX002 (ip), vehicle: saline",105 % of control
same,T/C,"dose: 75.0 mg/kg/injection, schedule: Q07DX002 (ip), vehicle: saline",121 % of control
same,T/C,"dose: 150.0 mg/kg/injection, schedule: Q07DX002 (ip), vehicle: saline",100 % of control
same,T/C,"dose: 300.0 mg/kg/injection, schedule: Q07DX002 (ip), vehicle: saline",120 % of control
same,T/C,"dose: 600.0 mg/kg/injection, schedule: Q07DX002 (ip), vehicle: saline",86 % of control
CC(=O)OC1=NC(C)c2c1cc(OC(C)=O)[nH]c2=O (stereo not drawn),T/C,"dose: 6.25 mg/kg/injection, schedule: Q07DX002 (ip), vehicle: Klucel (hydroxypropylcellulose) (HPC)",124 % of control
same,T/C,"dose: 12.5 mg/kg/injection, schedule: Q07DX002 (ip), vehicle: Klucel (hydroxypropylcellulose) (HPC)",70 % of control and 85 % of control
same,T/C,[9],100 % of control
COC1C(O)CC(OC2CC(Oc3cc4cc5c(c(O)c4c(O)c3C)C(=O)[C@@H](OC3CC(OC4CC(OC6CC(C)(O)C(OC(C)=O)C(C)O6)C(O)C(C)O4)C(O)C(C)O3)[C@H]([C@H](OC)C(=O)[C@@H](O)[C@@H](C)O)C5)OC(C)C2OC(C)=O)OC1C (stereo partly drawn),T/C,"dose: 0.04 mg/kg/injection, schedule: Q07DX002 (ip), vehicle: Klucel (hydroxypropylcellulose) (HPC)",109 % of control and 105 % of control
same,T/C,"dose: 0.08 mg/kg/injection, schedule: Q07DX002 (ip), vehicle: Klucel (hydroxypropylcellulose) (HPC)",207 % of control and 76 % of control
same,T/C,"dose: 0.16 mg/kg/injection, schedule: Q07DX002 (ip), vehicle: Klucel (hydroxypropylcellulose) (HPC)",71 % of control
COCC1OC2OC3C(COC)OC(OC4C(COC)OC(OC5C(COC)OC(OC6C(COC)OC(OC7C(COC)OC(OC8C(COC)OC(OC1C(O)C2O)C(O)C8O)C(O)C7O)C(O)C6O)C(O)C5O)C(O)C4O)C(O)C3O (stereo not drawn) (tested in a mixture with another compound),T/C,"dose: 25.0 mg/kg/injection, schedule: Q07DX002 (ip), vehicle: Klucel (hydroxypropylcellulose) (HPC)",72 % of control
same,T/C,"dose: 50.0 mg/kg/injection, schedule: Q07DX002 (ip), vehicle: Klucel (hydroxypropylcellulose) (HPC)",68 % of control
same,T/C,"dose: 100.0 mg/kg/injection, schedule: Q07DX002 (ip), vehicle: Klucel (hydroxypropylcellulose) (HPC)",53 % of control
same,T/C,[9],69 % of control
same,T/C,"dose: 400.0 mg/kg/injection, schedule: Q07DX002 (ip), vehicle: Klucel (hydroxypropylcellulose) (HPC)",95 % of control
Cc1nnc2ncccn12,T/C,[4],84 % of control and 105 % of control
same,T/C,[8],113 % of control and 102 % of control
same,T/C,"dose: 400.0 mg/kg/injection, schedule: Q07DX002 (ip), vehicle: saline",81 % of control
